Measured values from ChEMBL document CHEMBL1153550, “In vitro study of Candida tropicalis isolates exhibiting paradoxical growth in the presence of high concentrations of caspofungin” (2007).
Converted amounts (≈) assume the structure as drawn. The source made the active and inactive calls. No cut-off for these calls is given here.

Key:
Candida tropicalis [1] = test: Antifungal activity against > 2 x 10^7 CFU/ml Candida tropicalis isolate 13 in antibiotic medium 3 assessed as partial growth after 24 hrs by broth microdilution method; assay type: functional, organism-based
Candida tropicalis [2] = test: Antifungal activity against 10^5 CFU/ml Candida tropicalis isolate 15 in RPMI 1640 medium at 12.5 ug/ml treated for 24 hrs followed by incubation in drug free medium for 48 hrs by broth microdilution method; assay type: functional, organism-based
Candida tropicalis [3] = test: Antifungal activity against Candida tropicalis isolate 13 in RPMI 1640 medium assessed as paradoxical growth at 12.5 ug/ml after 48 hrs by broth microdilution method; assay type: functional, organism-based
Candida tropicalis [4] = test: Antifungal activity against Candida tropicalis isolate 7 in RPMI 1640 medium assessed as paradoxical growth at 6.25 ug/ml after 48 hrs by broth microdilution method; assay type: functional, organism-based
Candida tropicalis [5] = test: Antifungal activity against > 2 x 10^7 CFU/ml Candida tropicalis isolate 12 in antibiotic medium 3 assessed as partial growth after 24 hrs by broth microdilution method; assay type: functional, organism-based
Candida tropicalis [6] = test: Antifungal activity against 2 x 10^7 CFU/ml Candida tropicalis isolate 13 in RPMI 1640 medium after 24 hrs by broth microdilution method; assay type: functional; conditions: isolate 13, 24 h
Candida tropicalis [7] = test: Antifungal activity against > 2 x 10^7 CFU/ml Candida tropicalis isolate 10 in RPMI 1640 medium assessed as partial growth after 24 hrs by broth microdilution method; assay type: functional, organism-based
Candida tropicalis [8] = test: Antifungal activity against 2 x 10^7 CFU/ml Candida tropicalis isolate 2 in antibiotic medium 3 after 24 hrs by broth microdilution method; assay type: functional; conditions: isolate 2, 24 h
Candida tropicalis [9] = test: Antifungal activity against 10^5 CFU/ml Candida tropicalis isolate 9 in RPMI 1640 medium at 12.5 ug/ml treated for 24 hrs followed by incubation in drug free medium for 48 hrs by broth microdilution method; assay type: functional, organism-based
Candida tropicalis [10] = test: Antifungal activity against Candida tropicalis ATCC 750 in RPMI 1640 medium assessed as paradoxical growth at 6.25 ug/ml after 48 hrs by broth microdilution method; assay type: functional, organism-based
Candida tropicalis [11] = test: Antifungal activity against 2 x 10^7 CFU/ml Candida tropicalis isolate 3 in RPMI 1640 medium after 24 hrs by broth microdilution method; assay type: functional; conditions: isolate 3, 24 h
Candida tropicalis [12] = test: Antifungal activity against 10^5 CFU/ml Candida tropicalis isolate 6 in RPMI 1640 medium at =< 0.09 ug/ml after 24 hrs by followed by incubation in drug free medium for 48 hrs broth microdilution method; assay type: functional, organism-based
Candida tropicalis [13] = test: Antifungal activity against > 2 x 10^7 CFU/ml Candida tropicalis isolate 3 in RPMI 1640 medium assessed as partial growth after 24 hrs by broth microdilution method; assay type: functional, organism-based
Candida tropicalis [14] = test: Antifungal activity against 2 x 10^7 CFU/ml Candida tropicalis isolate 14 in RPMI 1640 medium after 24 hrs by broth microdilution method; assay type: functional; conditions: isolate 14, 24 h
Candida tropicalis [15] = test: Antifungal activity against > 2 x 10^7 CFU/ml Candida tropicalis isolate 14 in RPMI 1640 medium assessed as partial growth after 24 hrs by broth microdilution method; assay type: functional, organism-based
Candida tropicalis [16] = test: Antifungal activity against 10^5 CFU/ml Candida tropicalis isolate 8 in RPMI 1640 medium at 12.5 ug/ml treated for 48 hrs followed by incubation in drug free medium for 48 hrs by broth microdilution method; assay type: functional, organism-based
Candida tropicalis [17] = test: Antifungal activity against 10^5 CFU/ml Candida tropicalis isolate 13 in RPMI 1640 medium at =< 0.09 ug/ml after 24 hrs followed by incubation in drug free medium for 48 hrs by broth microdilution method; assay type: functional, organism-based
Candida tropicalis [18] = test: Antifungal activity against > 2 x 10^7 CFU/ml Candida tropicalis isolate 4 in RPMI 1640 medium assessed as partial growth after 24 hrs by broth microdilution method; assay type: functional, organism-based
Candida tropicalis [19] = test: Antifungal activity against Candida tropicalis isolate 15 in RPMI 1640 medium assessed as paradoxical growth at 12.5 ug/ml after 24 hrs by broth microdilution method; assay type: functional, organism-based
Candida tropicalis [20] = test: Antifungal activity against 2 x 10^7 CFU/ml Candida tropicalis isolate 9 in RPMI 1640 medium after 24 hrs by broth microdilution method; assay type: functional; conditions: isolate 9, 24 h
Candida tropicalis [21] = test: Antifungal activity against 2 x 10^7 CFU/ml Candida tropicalis isolate 8 in antibiotic medium 3 after 24 hrs by broth microdilution method; assay type: functional; conditions: isolate 8, 24 h
Candida tropicalis [22] = test: Antifungal activity against 10^5 CFU/ml Candida tropicalis isolate 2 in RPMI 1640 medium at 12.5 ug/ml treated for 48 hrs followed by incubation in drug free medium for 48 hrs by broth microdilution method; assay type: functional, organism-based
Candida tropicalis [23] = test: Antifungal activity against 10^5 CFU/ml Candida tropicalis isolate 12 in RPMI 1640 medium at 12.5 ug/ml treated for 48 hrs followed by incubation in drug free medium for 48 hrs by broth microdilution method; assay type: functional, organism-based
Candida tropicalis [24] = test: Antifungal activity Candida tropicalis isolate 4 in RPMI 1640 medium at 0.19 to 6.25 ug/ml after 24 hrs by time-kill assay; assay type: functional, organism-based
Candida tropicalis [25] = test: Antifungal activity against 2 x 10^7 CFU/ml Candida tropicalis isolate 4 in RPMI 1640 medium assessed as paradoxical growth at 12.5 ug/ml after 24 hrs by broth microdilution method; assay type: functional, organism-based
Candida tropicalis [26] = test: Antifungal activity against > 2 x 10^7 CFU/ml Candida tropicalis isolate 9 in antibiotic medium 3 assessed as partial growth after 24 hrs by broth microdilution method; assay type: functional, organism-based
Candida tropicalis [27] = test: Antifungal activity against 10^5 CFU/ml Candida tropicalis isolate 8 in RPMI 1640 medium at =< 0.09 ug/ml after 24 hrs followed by incubation in drug free medium for 48 hrs by broth microdilution method; assay type: functional, organism-based
Candida tropicalis [28] = test: Antifungal activity against Candida tropicalis isolate 14 in RPMI 1640 medium assessed as paradoxical growth at 12.5 ug/ml after 24 hrs by broth microdilution method; assay type: functional, organism-based
Candida tropicalis [29] = test: Antifungal activity against 10^5 CFU/ml Candida tropicalis isolate 5 in RPMI 1640 medium at =< 0.09 ug/ml after 24 hrs followed by incubation in drug free medium for 48 hrs by broth microdilution method; assay type: functional, organism-based
Candida tropicalis [30] = test: Antifungal activity against 2 x 10^7 CFU/ml Candida tropicalis isolate 15 in RPMI 1640 medium after 24 hrs by broth microdilution method; assay type: functional; conditions: isolate 15, 24 h
Candida tropicalis [31] = test: Antifungal activity against > 2 x 10^7 CFU/ml Candida tropicalis isolate 1 in antibiotic medium 3 assessed as partial growth after 24 hrs by broth microdilution method; assay type: functional, organism-based
Candida tropicalis [32] = test: Antifungal activity against 2 x 10^7 CFU/ml Candida tropicalis isolate 4 in RPMI 1640 medium after 24 hrs by broth microdilution method; assay type: functional; conditions: isolate 4, 24 h
Candida tropicalis [33] = test: Antifungal activity against Candida tropicalis isolate 6 in RPMI 1640 medium assessed as paradoxical growth at 6.25 ug/ml after 24 hrs by broth microdilution method; assay type: functional, organism-based
Candida tropicalis [34] = test: Antifungal activity against 10^5 CFU/ml Candida tropicalis isolate 11 in RPMI 1640 medium at 12.5 ug/ml treated for 24 hrs followed by incubation in drug free medium for 48 hrs by broth microdilution method; assay type: functional, organism-based
Candida tropicalis [35] = test: Antifungal activity against Candida tropicalis isolate 4 in RPMI 1640 medium assessed as paradoxical growth at 12.5 ug/ml after 48 hrs by broth microdilution method; assay type: functional, organism-based

CC[C@H](C)C[C@H](C)CCCCCCCCC(=O)N[C@H]1C[C@@H](O)[C@@H](NCCN)NC(=O)[C@@H]2[C@@H](O)CCN2C(=O)[C@H]([C@H](O)CCN)NC(=O)[C@H]([C@H](O)[C@@H](O)c2ccc(O)cc2)NC(=O)[C@@H]2C[C@@H](O)CN2C(=O)[C@H]([C@@H](C)O)NC1=O [CASPOFUNGIN]
Activity (Candida tropicalis [1]): inactive
Activity (Candida tropicalis [2]): inactive
Activity (Candida tropicalis [3]): inactive
Activity (Candida tropicalis [4]): Active
Activity (Candida tropicalis [5]): inactive
MIC (Candida tropicalis [6]): 0.024 µg/mL (≈ 0.022 µM)
Activity (Candida tropicalis [7]): inactive
MIC (Candida tropicalis [8]): 0.024 µg/mL (≈ 0.022 µM)
Activity (Candida tropicalis [9]): inactive
Activity (Candida tropicalis [10]): Active
MIC (Candida tropicalis [11]): 0.024 µg/mL (≈ 0.022 µM)
Activity (Candida tropicalis [12]): Active
Activity (Candida tropicalis [13]): inactive
MIC (Candida tropicalis [14]): 0.024 µg/mL (≈ 0.022 µM)
Activity (Candida tropicalis [15]): inactive
Activity (Candida tropicalis [16]): inactive
Activity (Candida tropicalis [17]): Active
Activity (Candida tropicalis [18]): inactive
Activity (Candida tropicalis [19]): inactive
MIC (Candida tropicalis [20]): 0.024 µg/mL (≈ 0.022 µM)
MIC (Candida tropicalis [21]): 0.024 µg/mL (≈ 0.022 µM)
Activity (Candida tropicalis [22]): inactive
Activity (Candida tropicalis [23]): inactive
Activity (Candida tropicalis [24]): Active
Activity (Candida tropicalis [25]): inactive
Activity (Candida tropicalis [26]): inactive
Activity (Candida tropicalis [27]): Active
Activity (Candida tropicalis [28]): inactive
Activity (Candida tropicalis [29]): Active
MIC (Candida tropicalis [30]): 0.024 µg/mL (≈ 0.022 µM)
Activity (Candida tropicalis [31]): inactive
MIC (Candida tropicalis [32]): 0.024 µg/mL (≈ 0.022 µM)
Activity (Candida tropicalis [33]): inactive
Activity (Candida tropicalis [34]): inactive
Activity (Candida tropicalis [35]): inactive
